Assay results taken from a melting point compilation (Tetko et al.; mined from patent text by program, amines drawn as free bases though some values may be those of a salt).

Structure (SMILES)	melting point
CC(=O)OCCOCn1cnc2c(N)nc(N)nc21	69 to 70 °C
OCCOCCOCCN1CCC(=C2c3ccccc3CC(O)c3sccc32)CC1 (stereo not given)	110 to 113 °C
COc1ccccc1OCC1NC(C(=O)O)CS1 (stereo not given)	149 to 150 °C
NCCC(=O)Nc1ccc(Nc2ccccc2)cc1	108 to 110 °C
COCCN(CC1=CCC(Oc2ccccc2)([N+](=O)[O-])C=C1)C(=O)C(Cl)Cl (stereo not given)	116 to 117 °C
N#CCCNC(=O)c1cccc(-c2ccc3c(c2)C(Oc2ccc(Cl)cc2Cl)CC3)c1 (stereo not given)	139 to 145 °C
CCC(CC)Oc1cc(C)nc2c1COCN2c1c(C)cc(Br)cc1C	206 to 209 °C
COc1cc2c(cc1Nc1ncc(Cl)c(Nc3ccc(N4CCOCC4)cc3OC)n1)CCN(CC(=O)N1CCOCC1)CC2	189 to 191 °C
COc1cc(/C=C/C(=O)CC(=O)/C=C/c2ccc(O)cc2Cl)ccc1O	185 to 192 °C
COc1ccc(/C=C(\C#N)c2ccccc2N)cc1OC1CCCC1	81 to 82.5 °C
Cc1nc2sc([N+](=O)[O-])cc2c(=O)n1-c1ccc([N+](=O)[O-])cc1Cl	166 to 168 °C
Nc1ccccc1C(=O)c1ccncc1	153 to 161 °C
CC(=O)NNc1ccc(NC(=S)N(C)C)cc1	187 to 189 °C
Cc1nc2c3c(c(C(=O)N(C)C)cc2n1C)CC[C@@H](c1ccccc1F)O3	199 to 201 °C
Cc1ccc(Oc2ccc([N+](=O)[O-])cn2)cc1	80 to 82 °C
CNC(=O)C1=CC(C)(CF)Oc2ccc([N+](=O)[O-])cc21 (stereo not given)	171 to 173 °C
CNC(=O)Oc1ccc2c(ccn2NCCCc2ccncc2F)c1	165 to 166 °C
O=C(NCCCCCCC(=O)c1ncco1)c1cc2ccccc2[nH]1	153 to 156 °C
CC1(C)OC(c2ccc(S(C)(=O)=O)cc2)=C(c2ccc(OC(F)(F)F)cc2)C1=O	118 to 120 °C
Cc1cccc(Nc2cc(Nc3cccc(OCC(N)=O)c3)ncn2)c1	192 to 194 °C

Structure (SMILES)	melting point
Cc1ccc(-c2nc(C)c3c(=O)[nH]ncn23)cc1	251 to 253 °C
O=C(NC(=O)c1cc(F)c(Cl)nc1Cl)NC1CC1	171 to 173 °C
CCCN(c1cccc(-c2ccnc3c([N+](=O)[O-])cnn23)c1)S(=O)(=O)c1ccccc1	154 to 156 °C
CON(Cc1nc2c(N)nc(C)c(C)c2n1CC(C)C)C(=O)C1CC1	135 to 137 °C
CC(=O)OC1CSC(Sc2ccc(C(C)=O)cc2)C(OC(C)=O)C1OC(C)=O (stereo not given)	122 °C
CN(Cc1cc(C(F)(F)F)cc(C(F)(F)F)c1)C(=O)c1c(-c2ccccc2)c2ccccc2c(=S)n1C	145 to 147 °C
CC(C)(C)OC(=O)n1c(C(=O)O)cc2ccccc21	117 °C
CC(C)(C)[C@H](NC(=O)CCC1c2ccccc2-c2ccccc21)C(=O)O	79 to 83 °C
CNc1nc2ccc(CCc3ccccn3)cc2s1	118 to 120 °C
CN(C)C(=O)c1cccc2c1nc(-c1c(F)cccc1F)n2Cc1c(F)cccc1F	213 to 214 °C
Cc1cc(S)n2nc(CN=[N+]=[N-])nc2n1	214 to 215 °C
O=C(Cc1ccc(I)cc1)N1CCOCC1	114 to 117 °C
CC(C)C(=O)N[C@@H]1CCc2c(c3cc(-c4ccno4)ccc3n2Cc2cccc(F)c2)C1	238 to 241 °C
CN(C1c2cc(OCc3ccccc3)ccc2OC(C)(C)C1O)S(C)(=O)=O (stereo not given)	162 to 164 °C
COc1cccc(CC(=O)O)c1OCCc1cn(-c2ccc(C(F)(F)F)cn2)nc1C(C)C	165 to 166 °C
COc1ccc(S(=O)(=O)Nc2cccc(C)c2NC(=O)c2cccnc2)cc1	207 to 209 °C
O=C1c2ccccc2CCc2ncsc21	83 to 86 °C
CCCOc1ccc2c(O)c([N+](=O)[O-])c(=O)oc2c1	151 to 152 °C
COCc1c(C(=O)c2ccccc2)ncc2[nH]c3ccc(Oc4nccc5ccccc45)cc3c12	159 to 160 °C
CC(C)CCN1CNC(=O)C12CCNCC2	103 to 105 °C
